We go through 4 compounds from ChEMBL document CHEMBL4017490, “Design, Synthesis, and Pharmacological Evaluation of Novel Multisubstituted Pyridin-3-amine Derivatives as Multitargeted Protein Kinase Inhibitors for the Treatment of Non-Small Cell Lung Cancer” (J Med Chem, 2017).

Experiment [1] addresses Fibroblast growth factor receptor 1 (Homo sapiens, UniProt P11362). Nature of the experiment: Inhibition of recombinant human FGFR1 using poly (Glu,Tyr) 4:1 as substrate after 60 mins by ELISA. (In general: In an ELISA, binding on a coated surface is turned into a signal by an enzyme label.)
For experiment [2], the target named is Fibroblast growth factor receptor 3 (Homo sapiens, UniProt P22607). In words: Inhibition of recombinant human FGFR3 using poly (Glu,Tyr) 4:1 as substrate after 60 mins by ELISA.
Experiment [3] has as its target Fibroblast growth factor receptor 4 (Homo sapiens, UniProt P22455). Nature of the experiment: Inhibition of recombinant human FGFR4 using poly (Glu,Tyr) 4:1 as substrate after 60 mins by ELISA.
The target of experiment [4] is Vascular endothelial growth factor receptor 2 (Homo sapiens, UniProt P35968). In words: Inhibition of recombinant KDR (unknown origin) using poly (Glu,Tyr) 4:1 as substrate after 60 mins by ELISA.
The target in experiment [5] is Proto-oncogene tyrosine-protein kinase receptor Ret (Homo sapiens, UniProt P07949). In words: Inhibition of recombinant Ret (unknown origin) using poly (Glu,Tyr) 4:1 as substrate after 60 mins by ELISA.
Experiment [6] has as its target Receptor tyrosine-protein kinase erbB-4 (Homo sapiens, UniProt Q15303). In words: Inhibition of recombinant ErbB4 (unknown origin) using poly (Glu,Tyr) 4:1 as substrate after 60 mins by ELISA.
Experiment [7] addresses Vascular endothelial growth factor receptor 1 (Homo sapiens, UniProt P17948). In words: Inhibition of recombinant VEGFR-1 (unknown origin) using poly (Glu,Tyr) 4:1 as substrate after 60 mins by ELISA.
Experiment [8] deals with Insulin-like growth factor 1 receptor (Homo sapiens, UniProt P08069). In words: Inhibition of recombinant IGF1R (unknown origin) using poly (Glu,Tyr) 4:1 as substrate after 60 mins by ELISA.
Experiment [9] addresses Platelet-derived growth factor receptor beta (Homo sapiens, UniProt P09619). In words: Inhibition of recombinant PDGFR-beta (unknown origin) using poly (Glu,Tyr) 4:1 as substrate after 60 mins by ELISA.
Experiment [10] concerns the target T1, Tyrosine-protein kinase Mer (Homo sapiens, UniProt Q12866).
T1 sequence (Q12866 whole entry): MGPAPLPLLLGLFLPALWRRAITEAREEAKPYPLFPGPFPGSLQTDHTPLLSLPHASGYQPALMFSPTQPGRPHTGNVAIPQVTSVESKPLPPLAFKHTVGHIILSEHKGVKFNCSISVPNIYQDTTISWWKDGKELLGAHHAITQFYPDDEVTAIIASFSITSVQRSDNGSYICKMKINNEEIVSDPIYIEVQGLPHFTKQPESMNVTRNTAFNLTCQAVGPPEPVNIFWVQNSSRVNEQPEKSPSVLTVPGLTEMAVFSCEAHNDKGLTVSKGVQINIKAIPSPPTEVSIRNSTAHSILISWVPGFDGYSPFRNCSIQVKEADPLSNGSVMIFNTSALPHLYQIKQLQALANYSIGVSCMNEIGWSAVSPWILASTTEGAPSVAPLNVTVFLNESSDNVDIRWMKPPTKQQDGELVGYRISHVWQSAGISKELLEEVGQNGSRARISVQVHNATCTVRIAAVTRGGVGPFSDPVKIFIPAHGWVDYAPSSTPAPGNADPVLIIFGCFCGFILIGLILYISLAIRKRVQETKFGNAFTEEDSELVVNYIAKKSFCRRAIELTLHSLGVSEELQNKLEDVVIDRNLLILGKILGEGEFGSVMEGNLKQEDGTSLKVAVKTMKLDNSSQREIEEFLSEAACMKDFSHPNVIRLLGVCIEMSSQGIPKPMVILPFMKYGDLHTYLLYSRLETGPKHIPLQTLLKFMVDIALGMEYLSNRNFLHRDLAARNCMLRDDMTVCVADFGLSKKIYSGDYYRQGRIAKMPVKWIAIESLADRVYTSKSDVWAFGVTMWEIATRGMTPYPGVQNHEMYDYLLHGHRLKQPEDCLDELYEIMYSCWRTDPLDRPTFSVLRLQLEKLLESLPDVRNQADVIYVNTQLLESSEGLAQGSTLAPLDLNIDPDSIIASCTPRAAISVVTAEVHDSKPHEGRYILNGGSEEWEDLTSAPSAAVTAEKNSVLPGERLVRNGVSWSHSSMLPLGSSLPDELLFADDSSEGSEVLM
In words: Inhibition of recombinant Mer (unknown origin) using poly (Glu,Tyr) 4:1 as substrate after 60 mins by ELISA.

Experiment [11] has as its target Leukocyte tyrosine kinase receptor (Homo sapiens, UniProt P29376). Nature of the experiment: Inhibition of recombinant LTK (unknown origin) using poly (Glu,Tyr) 4:1 as substrate after 60 mins by ELISA.
Experiment [12] has as its target Hepatocyte growth factor receptor (Homo sapiens, UniProt P08581). In words: Inhibition of recombinant c-Met (unknown origin) using poly (Glu,Tyr) 4:1 as substrate after 60 mins by ELISA.
The target in experiment [13] is T2, Tyrosine-protein kinase receptor UFO (Homo sapiens, UniProt P30530).
T2 sequence (P30530 whole entry): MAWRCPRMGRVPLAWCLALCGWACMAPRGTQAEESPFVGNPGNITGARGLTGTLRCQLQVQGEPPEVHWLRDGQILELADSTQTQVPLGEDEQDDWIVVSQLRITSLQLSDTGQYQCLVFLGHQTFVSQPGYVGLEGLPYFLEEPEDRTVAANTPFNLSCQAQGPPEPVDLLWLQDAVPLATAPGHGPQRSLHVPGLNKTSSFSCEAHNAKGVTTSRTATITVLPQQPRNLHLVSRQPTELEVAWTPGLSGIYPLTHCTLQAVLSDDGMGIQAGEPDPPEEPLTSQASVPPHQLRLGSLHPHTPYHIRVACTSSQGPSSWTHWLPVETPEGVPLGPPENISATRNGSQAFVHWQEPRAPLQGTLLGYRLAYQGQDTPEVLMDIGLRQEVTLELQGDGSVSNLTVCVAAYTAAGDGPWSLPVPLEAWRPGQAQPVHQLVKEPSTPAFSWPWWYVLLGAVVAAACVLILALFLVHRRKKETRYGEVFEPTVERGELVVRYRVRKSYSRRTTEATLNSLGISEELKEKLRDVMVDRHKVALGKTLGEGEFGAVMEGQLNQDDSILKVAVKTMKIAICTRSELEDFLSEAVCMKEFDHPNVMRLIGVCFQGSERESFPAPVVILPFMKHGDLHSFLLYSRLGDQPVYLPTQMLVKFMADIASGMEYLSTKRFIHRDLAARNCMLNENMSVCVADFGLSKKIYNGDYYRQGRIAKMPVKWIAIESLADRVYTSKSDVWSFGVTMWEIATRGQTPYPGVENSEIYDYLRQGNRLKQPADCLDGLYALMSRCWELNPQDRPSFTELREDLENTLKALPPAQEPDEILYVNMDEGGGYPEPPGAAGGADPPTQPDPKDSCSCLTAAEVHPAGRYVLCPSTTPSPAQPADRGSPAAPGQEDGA
In words: Inhibition of recombinant AXL (unknown origin) using poly (Glu,Tyr) 4:1 as substrate after 60 mins by ELISA.

The target in experiment [14] is Cyclin-dependent kinase 4 (Homo sapiens, UniProt P11802). In words: Inhibition of CDK4 (unknown origin) by FRET assay.
Experiment [15] concerns the target Epidermal growth factor receptor (Homo sapiens, UniProt P00533).
Description: Inhibition of recombinant EGFR (unknown origin) using poly (Glu,Tyr) 4:1 as substrate after 60 mins by ELISA

Bounds are passed on as bounds.

Hepatocyte growth factor receptor, sequence (P08581 whole entry): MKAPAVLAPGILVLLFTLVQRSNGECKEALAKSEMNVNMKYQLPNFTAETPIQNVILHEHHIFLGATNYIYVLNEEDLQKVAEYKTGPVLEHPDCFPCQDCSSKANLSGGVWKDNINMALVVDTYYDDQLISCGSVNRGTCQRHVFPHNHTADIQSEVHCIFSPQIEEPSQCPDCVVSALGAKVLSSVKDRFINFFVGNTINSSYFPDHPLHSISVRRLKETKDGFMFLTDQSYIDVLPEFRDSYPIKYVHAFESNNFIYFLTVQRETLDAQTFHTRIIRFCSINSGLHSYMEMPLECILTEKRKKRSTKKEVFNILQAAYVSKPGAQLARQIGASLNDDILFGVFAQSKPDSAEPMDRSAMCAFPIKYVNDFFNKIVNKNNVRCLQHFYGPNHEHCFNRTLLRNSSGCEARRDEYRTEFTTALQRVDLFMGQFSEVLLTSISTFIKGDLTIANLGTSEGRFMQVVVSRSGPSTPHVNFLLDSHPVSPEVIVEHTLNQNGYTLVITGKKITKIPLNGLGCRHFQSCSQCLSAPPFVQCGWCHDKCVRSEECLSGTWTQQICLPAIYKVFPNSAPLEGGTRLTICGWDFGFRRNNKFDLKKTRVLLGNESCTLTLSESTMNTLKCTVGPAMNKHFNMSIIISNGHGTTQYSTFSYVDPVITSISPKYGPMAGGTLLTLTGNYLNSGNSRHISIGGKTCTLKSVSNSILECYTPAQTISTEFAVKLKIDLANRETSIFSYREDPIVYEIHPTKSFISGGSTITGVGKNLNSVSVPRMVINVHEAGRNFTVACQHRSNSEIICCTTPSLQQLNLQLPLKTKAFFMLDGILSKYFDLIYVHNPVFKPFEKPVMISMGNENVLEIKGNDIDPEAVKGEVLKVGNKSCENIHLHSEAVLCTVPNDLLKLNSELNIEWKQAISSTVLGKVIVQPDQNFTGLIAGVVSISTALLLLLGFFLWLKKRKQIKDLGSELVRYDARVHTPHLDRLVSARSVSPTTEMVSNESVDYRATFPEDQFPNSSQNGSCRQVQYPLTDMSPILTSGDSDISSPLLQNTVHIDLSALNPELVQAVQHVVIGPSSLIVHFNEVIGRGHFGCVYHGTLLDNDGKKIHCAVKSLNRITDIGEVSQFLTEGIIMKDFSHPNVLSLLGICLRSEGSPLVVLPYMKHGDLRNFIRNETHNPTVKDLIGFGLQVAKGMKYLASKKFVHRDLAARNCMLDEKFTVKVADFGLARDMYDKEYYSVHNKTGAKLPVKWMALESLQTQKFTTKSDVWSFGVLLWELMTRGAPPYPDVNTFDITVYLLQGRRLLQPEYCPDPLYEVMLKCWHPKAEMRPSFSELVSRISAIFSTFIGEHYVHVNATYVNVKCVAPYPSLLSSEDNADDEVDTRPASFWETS
Cyclin-dependent kinase 4, sequence (P11802 whole entry): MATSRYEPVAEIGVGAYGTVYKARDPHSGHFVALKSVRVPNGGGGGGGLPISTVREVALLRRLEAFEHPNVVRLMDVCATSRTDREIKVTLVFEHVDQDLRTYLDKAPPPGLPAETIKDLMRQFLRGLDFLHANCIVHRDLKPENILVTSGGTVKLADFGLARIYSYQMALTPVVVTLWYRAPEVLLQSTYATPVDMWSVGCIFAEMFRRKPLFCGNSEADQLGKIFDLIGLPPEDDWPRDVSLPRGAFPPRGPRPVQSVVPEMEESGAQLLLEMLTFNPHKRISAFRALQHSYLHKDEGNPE
Receptor tyrosine-protein kinase erbB-4, sequence (Q15303 whole entry): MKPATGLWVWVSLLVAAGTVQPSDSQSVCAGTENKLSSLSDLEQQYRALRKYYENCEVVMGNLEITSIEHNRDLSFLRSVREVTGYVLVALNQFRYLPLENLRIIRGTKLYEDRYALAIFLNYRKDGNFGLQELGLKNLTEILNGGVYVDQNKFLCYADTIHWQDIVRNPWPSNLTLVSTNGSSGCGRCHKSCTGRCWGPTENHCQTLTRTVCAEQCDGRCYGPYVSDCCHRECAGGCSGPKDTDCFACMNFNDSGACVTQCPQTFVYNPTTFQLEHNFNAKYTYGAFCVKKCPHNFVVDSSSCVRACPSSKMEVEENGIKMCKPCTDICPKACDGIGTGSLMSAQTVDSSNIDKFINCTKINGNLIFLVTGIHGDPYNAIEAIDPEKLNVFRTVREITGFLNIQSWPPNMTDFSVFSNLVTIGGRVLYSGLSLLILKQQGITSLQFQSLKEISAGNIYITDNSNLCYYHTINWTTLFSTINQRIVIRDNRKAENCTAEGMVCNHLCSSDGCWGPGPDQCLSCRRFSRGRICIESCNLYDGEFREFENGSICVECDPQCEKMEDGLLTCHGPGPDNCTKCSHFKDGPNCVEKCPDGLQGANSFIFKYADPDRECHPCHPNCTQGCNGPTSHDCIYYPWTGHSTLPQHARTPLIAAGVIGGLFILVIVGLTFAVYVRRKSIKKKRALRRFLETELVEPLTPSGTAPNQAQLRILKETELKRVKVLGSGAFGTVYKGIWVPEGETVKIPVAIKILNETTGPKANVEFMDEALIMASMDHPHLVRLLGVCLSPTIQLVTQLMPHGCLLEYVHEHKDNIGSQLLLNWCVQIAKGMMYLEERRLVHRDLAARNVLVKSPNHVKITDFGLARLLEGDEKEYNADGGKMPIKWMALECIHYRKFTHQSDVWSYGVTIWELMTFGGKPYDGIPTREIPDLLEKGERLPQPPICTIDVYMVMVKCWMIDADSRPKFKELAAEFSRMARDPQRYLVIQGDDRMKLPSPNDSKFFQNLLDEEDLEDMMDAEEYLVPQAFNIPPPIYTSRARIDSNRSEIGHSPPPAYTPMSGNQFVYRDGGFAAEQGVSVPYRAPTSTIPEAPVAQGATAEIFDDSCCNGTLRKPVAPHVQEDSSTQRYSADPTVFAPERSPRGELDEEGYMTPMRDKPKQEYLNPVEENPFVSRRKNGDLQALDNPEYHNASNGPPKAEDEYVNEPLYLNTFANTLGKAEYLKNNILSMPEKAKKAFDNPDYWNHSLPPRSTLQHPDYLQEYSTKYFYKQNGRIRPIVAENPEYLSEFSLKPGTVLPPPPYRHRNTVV
Proto-oncogene tyrosine-protein kinase receptor Ret, sequence (P07949 whole entry): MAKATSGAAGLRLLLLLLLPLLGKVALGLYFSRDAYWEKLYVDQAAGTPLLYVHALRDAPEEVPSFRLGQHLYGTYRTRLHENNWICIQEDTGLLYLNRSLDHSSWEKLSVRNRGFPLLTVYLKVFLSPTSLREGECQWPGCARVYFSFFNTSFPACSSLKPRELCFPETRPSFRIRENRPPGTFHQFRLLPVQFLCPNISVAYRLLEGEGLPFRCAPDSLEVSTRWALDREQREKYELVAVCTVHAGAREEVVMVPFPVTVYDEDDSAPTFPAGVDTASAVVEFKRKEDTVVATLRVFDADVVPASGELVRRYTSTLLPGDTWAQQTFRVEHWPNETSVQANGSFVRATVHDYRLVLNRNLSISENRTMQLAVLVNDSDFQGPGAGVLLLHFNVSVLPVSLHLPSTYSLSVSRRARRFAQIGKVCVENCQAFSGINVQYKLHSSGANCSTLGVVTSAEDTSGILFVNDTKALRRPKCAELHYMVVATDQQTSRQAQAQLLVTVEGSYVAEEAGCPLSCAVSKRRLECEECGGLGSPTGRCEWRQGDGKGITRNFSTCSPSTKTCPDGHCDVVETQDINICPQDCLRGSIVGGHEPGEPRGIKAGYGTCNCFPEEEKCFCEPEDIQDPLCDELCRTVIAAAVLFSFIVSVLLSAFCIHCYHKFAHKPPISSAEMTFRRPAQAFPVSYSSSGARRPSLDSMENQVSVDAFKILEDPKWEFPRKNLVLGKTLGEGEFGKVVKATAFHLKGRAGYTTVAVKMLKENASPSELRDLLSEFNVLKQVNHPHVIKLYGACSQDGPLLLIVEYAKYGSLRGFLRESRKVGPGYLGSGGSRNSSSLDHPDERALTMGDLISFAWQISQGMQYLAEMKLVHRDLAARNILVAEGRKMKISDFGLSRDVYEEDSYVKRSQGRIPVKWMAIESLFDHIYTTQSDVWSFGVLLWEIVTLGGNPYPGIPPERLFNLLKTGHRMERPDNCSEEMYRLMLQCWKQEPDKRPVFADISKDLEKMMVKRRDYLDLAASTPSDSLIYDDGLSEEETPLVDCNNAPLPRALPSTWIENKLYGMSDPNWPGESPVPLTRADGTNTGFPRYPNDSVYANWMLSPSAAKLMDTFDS
Fibroblast growth factor receptor 4, sequence (P22455 whole entry): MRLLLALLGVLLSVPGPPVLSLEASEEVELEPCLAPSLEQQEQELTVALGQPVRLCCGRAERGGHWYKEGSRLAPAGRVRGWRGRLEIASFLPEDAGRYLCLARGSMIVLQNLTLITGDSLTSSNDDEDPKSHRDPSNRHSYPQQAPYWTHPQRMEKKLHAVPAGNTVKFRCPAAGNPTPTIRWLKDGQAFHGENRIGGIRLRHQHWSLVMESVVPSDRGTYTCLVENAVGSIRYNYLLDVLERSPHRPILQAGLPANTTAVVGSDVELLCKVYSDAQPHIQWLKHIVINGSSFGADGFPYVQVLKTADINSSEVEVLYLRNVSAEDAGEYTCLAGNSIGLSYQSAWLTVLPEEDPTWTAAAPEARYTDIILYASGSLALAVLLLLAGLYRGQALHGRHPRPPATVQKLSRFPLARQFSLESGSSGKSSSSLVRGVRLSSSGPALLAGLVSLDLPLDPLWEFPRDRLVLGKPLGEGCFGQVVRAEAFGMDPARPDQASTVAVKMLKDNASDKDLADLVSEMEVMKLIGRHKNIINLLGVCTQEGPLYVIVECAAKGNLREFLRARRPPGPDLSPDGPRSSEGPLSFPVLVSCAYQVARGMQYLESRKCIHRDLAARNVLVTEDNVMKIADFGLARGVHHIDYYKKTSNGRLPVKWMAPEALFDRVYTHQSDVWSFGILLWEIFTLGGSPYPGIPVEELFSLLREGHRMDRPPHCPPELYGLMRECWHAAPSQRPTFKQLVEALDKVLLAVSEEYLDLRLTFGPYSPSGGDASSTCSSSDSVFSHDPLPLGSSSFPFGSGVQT

In the case of `Cc1n[nH]c2ccc(-c3cc(N[C@@H](CO)c4ccccc4)cnc3-c3cc(Cl)ccc3O)cc12`, the IC50 (commonly the point on the concentration scale where inhibition reaches its midpoint) came to 55.8 nM in [1]; 73.1 nM in [2]; 61.7 nM in [3]; 3.7 nM in experiment [4]; 0.7 nM in experiment [5]; 5.3 nM in experiment [6]. Besides, the IC50 in experiment [7] was > 10 nM; in [8], > 100 nM; in experiment [9] it was > 100 nM; in experiment [10] it was 30.9 nM; in [11] it was 300 nM; in [12], > 1000 nM. Also, the 50% inhibitory concentration (IC50) in [13] was > 1000 nM; in experiment [14], > 1000 nM; in [15], 3.1 nM.
In the case of `Cc1n[nH]c2ccc(-c3cc(N[C@@H](CO)c4ccccc4)cnc3-c3ccc(F)cc3O)cc12`, the IC50 stood at 25.2 nM in experiment [1]; 15.9 nM in [2]; 93.3 nM in [3]; 2.6 nM in [4]; 0.4 nM in [5]; 2.4 nM in experiment [6]. The IC50 in experiment [7] is > 10 nM; in experiment [8], > 1000 nM; in experiment [9], 1 to 10 nM; in [10], 7.1 nM; in experiment [11] it was 68.5 nM; in experiment [12] it was > 1000 nM. The IC50 in experiment [13] is > 1000 nM; in experiment [14] it was > 1000 nM; in experiment [15] it was 8.1 nM.
Take `Cc1n[nH]c2ccc(-c3cc(N[C@@H](CO)c4ccccc4)cnc3-c3cc(F)ccc3O)cc12`: the IC50 in [1] was found to be 18 nM; in experiment [2] it was 27.5 nM; in [3], 299 nM; in [4] it was 1.7 nM; in experiment [5], 0.2 nM; in [6] it was 6.2 nM. For the same compound, the IC50 in experiment [7] was 1 to 10 nM; in experiment [8] it was > 1000 nM; in experiment [9], > 10 nM; in [10], 36.9 nM; in experiment [11], 123 nM; in experiment [12] it was > 1000 nM. The IC50 in [13] is > 1000 nM; in experiment [14] it was > 1000 nM; in [15], 4.7 nM.
In the case of `OC[C@H](Nc1cnc(-c2cc(Cl)ccc2O)c(-c2ccc3cnccc3c2)c1)c1ccccc1`, the IC50 in [1] worked out at 16.1 nM; in experiment [2] it was 23 nM; in [3], 7.4 nM; in experiment [4] it was 0.8 nM; in experiment [5] it was 0.04 nM; in [6], 5 nM. The IC50 is > 10 nM in [7]; > 1000 nM in experiment [8]; 1 to 10 nM in experiment [9]; 4.4 nM in experiment [10]; 45.3 nM in [11]; 196 nM in experiment [12]. Moreover, the IC50 in experiment [13] is > 1000 nM; in experiment [14], > 1000 nM; in [15] it was 4.2 nM.
